Test results taken from US10080751B2, “Systems and methods for treating bacterial infection” (priority 2016, dated 2018).
≈ marks a conversion by molar mass, not a printed value. Where two headings read alike, the source gives them in different places.

What was measured:
[1] = test system: nosocomial pneumonia suspected or confirmed to be caused by Gram-positive pathogens; conditions: cited from earlier work; for cure rate: intent-to-treat, test of cure visit
[2] = test system: S. aureus; test: MIC with/without bovine pulmonary surfactant, S. aureus; format: cell-based, Staphylococcus aureus; conditions: for MICRZ, Resazurin: +BPS: 2.5% v/v BPS; for MICRZ, Resazurin: no BPS
Experimental: (§1) Clinical isolates were identified by the submitting laboratories and confirmed by JMI Laboratories using standard bacteriologic algorithms and methodologies, including Matrix-Assisted Laser Desorption Ionization-Time Of Flight Mass Spectrometry (MALDI-TOF MS). When necessary, MALDI-TOF MS was performed using the Bruker Daltonics MALDI Biotyper (Billerica, Mass., USA), following manufacturer's instructions. Isolates selected were bacterial species commonly associated with pneumonia. […] 2.2 Susceptibility testing
(§2) Antibacterial susceptibility testing was measured by JMI Labs (North Liberty, Iowa, USA). […] These clinical isolates were collected from US (n=4), Mexico (n=2), and Italy (n=1). Susceptibility testing was performed by broth microdilution in accordance with the Clinical and Laboratory and Standards Institute (CLSI) guidelines M07-A10 (2015) and the standard operating procedures at JMI laboratories. Minimum inhibitory concentrations (MICs) were based on CLSI criteria (2015). There are no published breakpoints for iclaprim. E. coli, K. pneumoniae, M. catarrhalis, E. faecalis, and S. aureus were tested in cation-adjusted Mueller-Hinton broth (CA-MHB). S. pneumoniae were tested in CA-MHB supplemented with 2.5-5% lysed horse blood, and H. influenza were tested in Haemophilus test medium. Quality control and interpretation of results were performed in accordance with CLSI M100-S26 (2016) methods. QC ranges for iclaprim were those approved by CLSI and published in M100-S26 (2016). Iclaprim and comparator antibiotic MIC results were within the CLSI published ranges against E. coli ATCC 25922, E. faecalis ATCC 29212, E. faecalis ATCC 33186, H. influenzae ATCC 49247, K. pneumoniae ATCC 700603 (ESBL phenotype), S. aureus ATCC 29213, and S. pneumoniae ATCC 49619. Isolates were tested with MIC panels (ThermoFisher Scientific, Cleveland, Ohio, USA) of comparator antibiotics (daptomycin and levofloxacin).
(§3) Because bovine pulmonary surfactant can introduce cloudiness to the MIC testing media, antimicrobial growth inhibition was also evaluated using the colorimetric metabolic indicator resazurin (Camlab Ltd., Cambridge, UK). […] S. pneumoniae panels were omitted from resazurin analysis because the color change was obscured by the lysed horse blood present in the test medium. Growth inhibition was then evaluated as a visible color change from blue (no growth) to pink (robust growth) and recorded as a MICRZ value.
(§4) The MICs of iclaprim, levofloxacin, and daptomycin were determined against Gram-positive and Gram-negative isolates.
(§5) A new vial of bovine pulmonary surfactant (BPS; Survanta®; Abbott Laboratories, Columbus, Ohio) was utilized for each independent experiment. Each vial was mixed thoroughly and a 100 μL aliquot was spread on an agar plate, which was incubated overnight to confirm sterility. […] The concentration of surfactant was expressed in terms of percent volume of Survanta® suspension, which consisted of phospholipid (25 mg/mL) and surfactant proteins (<1 mg/mL) in 0.9% sodium chloride solution (Goerke, 1998). MICs of daptomycin were determined in CAMHB with the Ca^2+ content adjusted to 50 mg/L.

[3] = test system: S. pneumoniae; test: MIC with/without bovine pulmonary surfactant, S. pneumoniae; format: cell-based; conditions: Streptococcus pneumoniae
Experimental: as §1, §2, §3, §4, §5

[4] = test system: K. pneumoniae; test: MIC with/without bovine pulmonary surfactant, K. pneumoniae; format: cell-based, Klebsiella pneumoniae; conditions: for MIC: Klebsiella pneumoniae
Experimental: as §1, §2, §3, §4, §5

[5] = test system: H. influenzae; test: MIC with/without bovine pulmonary surfactant, H. influenzae; format: cell-based, Haemophilus influenzae; conditions: for MIC: Haemophilus influenzae
Experimental: as §1, §2, §3, §4, §5

[6] = test system: E. coli; test: MIC with/without bovine pulmonary surfactant, E. coli; format: cell-based, Escherichia coli; conditions: E. coli ATCC 25922
Experimental: as §1, §2, §3, §4
A new vial of bovine pulmonary surfactant (BPS; Survanta®; Abbott Laboratories, Columbus, Ohio) was utilized for each independent experiment. […] MICs of daptomycin were determined in CAMHB with the Ca^2+ content adjusted to 50 mg/L.

[7] = test system: S. aureus strain AH1252; test: Neutropenic rat lung infection model; format: in vivo; conditions: iclaprim 80 mg/kg
Experimental: S. aureus strain AH1252, a thymidine knockout of the MRSA wild type AW6 strain, was utilized for this study. The bacterial strain was diluted in a 2% alginate buffer, which was added dropwise in a ratio of 1:5 into […] to form alginate beads. The alginate beads reduce the efficacy of bacterial clearance similar to that seen in the cystic fibrosis population. A 5.25×10^4 bacterial inoculum was administered to groups of 9 rats, intratracheally, with prepared alginate bacteria suspensions, under isoflurane anesthesia. […] Twelve hours after the last treatment, rats were euthanized and lungs collected for CFU determination.

[8] = test system: E. faecalis; test: MIC with/without bovine pulmonary surfactant, E. faecalis; format: cell-based, Enterococcus faecalis; conditions: for MICRZ, Resazurin: +BPS: 2.5% v/v BPS; for MICRZ, Resazurin: no BPS
Experimental: as §1, §2, §3, §4, §5

[9] = test system: common Gram-positive and Gram-negative respiratory bacteria; test: Pulmonary surfactant interaction, overall effect on MIC and MICRZ; format: cell-based; conditions: 2.5% (v/v) BPS, all tested strains or isolates
Experimental: Antibacterial susceptibility testing was measured by JMI Labs (North Liberty, Iowa, USA). […] These clinical isolates were collected from US (n=4), Mexico (n=2), and Italy (n=1). Susceptibility testing was performed by broth microdilution in accordance with the Clinical and Laboratory and Standards Institute (CLSI) guidelines M07-A10 (2015) and the standard operating procedures at JMI laboratories. Minimum inhibitory concentrations (MICs) were based on CLSI criteria (2015). There are no published breakpoints for iclaprim. E. coli, K. pneumoniae, M. catarrhalis, E. faecalis, and S. aureus were tested in cation-adjusted Mueller-Hinton broth (CA-MHB). […]
Because bovine pulmonary surfactant can introduce cloudiness to the MIC testing media, antimicrobial growth inhibition was also evaluated using the colorimetric metabolic indicator resazurin (Camlab Ltd., Cambridge, UK). […] Growth inhibition was then evaluated as a visible color change from blue (no growth) to pink (robust growth) and recorded as a MICRZ value.
as §4
A new vial of bovine pulmonary surfactant (BPS; Survanta®; Abbott Laboratories, Columbus, Ohio) was utilized for each independent experiment. […] MICs of daptomycin were determined in CAMHB with the Ca^2+ content adjusted to 50 mg/L. […]

[10] = S. aureus Clinical Isolate 825189
[11] = SC/BID 3 days, vancomycin 50 mg/kg

## COc1cc(Cc2cnc(N)nc2N)c2c(c1OC)OC(C1CC1)C=C2 (racemic) [Iclaprim]
[1]; iclaprim q12h
  death rate within 28 days of the start of treatment: 8.7%
[1]; iclaprim 0.8 mg/kg IV q12h
  cure rate: 73.9%
[1]; iclaprim 1.6 mg/kg IV q8h
  cure rate: 62.5%
[2]; S. aureus ATCC 29213
  MICRZ, Resazurin: +BPS: 0.06 µg/mL
  MICRZ, Resazurin: 0.06 µg/mL
[2]; [10]
  MICRZ, Resazurin: +BPS: 0.12 µg/mL
  MICRZ, Resazurin: 0.06 µg/mL
[3]; ATCC49619, S. pneumoniae ATCC 49619, 2.5% v/v BPS, read-out: MIC, CLSI: +BPS
  MIC: 0.06 mg/L (≈ 0.169 µM)
[3]; ATCC49619, S. pneumoniae ATCC 49619, no BPS, read-out: MIC, CLSI
  MIC: 0.06 mg/L (≈ 0.169 µM)
[3]; S. pneumoniae Clinical Isolate 818757, 2.5% v/v BPS, read-out: MIC, CLSI: +BPS
  MIC: 0.06 mg/L (≈ 0.169 µM)
[3]; S. pneumoniae Clinical Isolate 818757, no BPS, read-out: MIC, CLSI
  MIC: 0.06 mg/L (≈ 0.169 µM)
[3]; S. pneumoniae Clinical Isolate 825175, 2.5% v/v BPS, read-out: MIC, CLSI: +BPS
  MIC: 0.12 mg/L (≈ 0.339 µM)
[3]; S. pneumoniae Clinical Isolate 825175, no BPS, read-out: MIC, CLSI
  MIC: 0.12 mg/L (≈ 0.339 µM)
[4]; K. pneumoniae ATCC 700603, 2.5% v/v BPS
  MICRZ, Resazurin: +BPS: 4 µg/mL
[4]; K. pneumoniae ATCC 700603, no BPS
  MICRZ, Resazurin: 4 µg/mL
[4]; K. pneumoniae Clinical Isolate 858055, 2.5% v/v BPS
  MICRZ, Resazurin: +BPS: 2 µg/mL
[4]; K. pneumoniae Clinical Isolate 858055, no BPS
  MICRZ, Resazurin: 2 µg/mL
[4]; ATCC700603, K. pneumoniae ATCC 700603, 2.5% v/v BPS, read-out: MIC, CLSI: +BPS
  MIC: 4 mg/L (≈ 11.3 µM)
[4]; ATCC700603, K. pneumoniae ATCC 700603, no BPS, read-out: MIC, CLSI
  MIC: 4 mg/L (≈ 11.3 µM)
[4]; K. pneumoniae Clinical Isolate 858055, 2.5% v/v BPS, read-out: MIC, CLSI: +BPS
  MIC: 2 mg/L (≈ 5.64 µM)
[4]; K. pneumoniae Clinical Isolate 858055, no BPS, read-out: MIC, CLSI
  MIC: 2 mg/L (≈ 5.64 µM)
[5]; H. influenzae ATCC 49247, 2.5% v/v BPS
  MICRZ, Resazurin: +BPS: 0.25 µg/mL
[5]; H. influenzae ATCC 49247, no BPS
  MICRZ, Resazurin: 0.25 µg/mL
[5]; H. influenzae Clinical Isolate 824704, 2.5% v/v BPS
  MICRZ, Resazurin: +BPS: 0.06 µg/mL
[5]; H. influenzae Clinical Isolate 824704, no BPS
  MICRZ, Resazurin: 0.06 µg/mL
[5]; ATCC49247, H. influenzae ATCC 49247, 2.5% v/v BPS, read-out: MIC, CLSI: +BPS
  MIC: 0.12 mg/L (≈ 0.339 µM)
[5]; ATCC49247, H. influenzae ATCC 49247, no BPS, read-out: MIC, CLSI
  MIC: 0.12 mg/L (≈ 0.339 µM)
[5]; H. influenzae Clinical Isolate 824704, 2.5% v/v BPS, read-out: MIC, CLSI: +BPS
  MIC: 0.06 mg/L (≈ 0.169 µM)
[5]; H. influenzae Clinical Isolate 824704, no BPS, read-out: MIC, CLSI
  MIC: 0.06 mg/L (≈ 0.169 µM)
[6]; 2.5% v/v BPS
  MICRZ, Resazurin: +BPS: 1 µg/mL
[6]; no BPS
  MICRZ, Resazurin: 1 µg/mL
[7]; [11]
  72 hour lungs (CFU/gram of lung) log10CFU/Lung: 3.34 log10CFU/Lung
  Change in CFUs from 2 hr.: 0.22 log 10 CFU
[7]; SC/BID 3 days, vancomycin 50 mg/kg, 9 rats
  Survival >60 hrs: 9/9
[7]; vancomycin 50 mg/kg SC/BID
  survival compared to the infection controls: increased survival
[7]; vs 72 hr infection controls, vancomycin 50 mg/kg SC/BID
  Change in CFUs from 72 hr.: −5.34 log 10 CFU
[8]; E. faecalis ATCC 29212
  MICRZ, Resazurin: +BPS: <=0.015 μg/mL
  MICRZ, Resazurin: <=0.015 μg/mL
[8]; E. faecalis ATCC 33186
  MICRZ, Resazurin: +BPS: <=0.015 μg/mL
  MICRZ, Resazurin: 0.03 µg/mL
[9]
  effect of BPS on the MIC and MICRZ values: minimal or no effect
